Data as given in US20250034216A1, “STEREOSELECTIVE COVALENT LIGANDS FOR ONCOGENIC AND IMMUNOLOGICAL PROTEINS” (The Scripps Research Institute, priority 2021, published 2025).

Key:
PSME1_C106 and PSME2_C91 = target: T1, PSME1_C106 and PSME2_C91 (Homo sapiens, UniProt Q06323); assay: IA-DTB cysteine reactivity; assay type: binding; conditions: 22Rv1 cells, 20 μM, 1 h
T1 construct: endogenous in cells; host or cells: 22Rv1
Experimental: Sample preparation: Cells (adherent: 15 cm dishes, suspension: 2 million cells/mL) were treated with electrophilic probes in situ for indicated times and concentrations, washed with ice-cold PBS, and flash frozen in liquid nitrogen. Cell pellets were lysed by sonication (8 pulses, 40% power) in 500 μL ice-cold PBS supplemented with cOmplete protease inhibitors (1 tablet/10 mL of PBS). Whole cell lysates protein content was measured using a standard DC protein assay (Bio-Rad) and 500 μL (2 mg/mL protein content) were treated with 5 μL of 10 mM 1A-DTB (in DMSO) for 1 h at ambient temperature with occasional vortexing. Samples were methanol-chloroform precipitated with the addition of 500 μL ice-cold MeOH and 200 μL CHCl3, vortexed, and centrifuged (10 min, 10,000 g). Without disrupting the protein disk, both top and bottom layers were aspirated and the protein disk was washed with 1 mL ice-cold MeOH and centrifuged (10 min, 10,000 g). The pellets were allowed to air dry, and then re-suspended in 90 μL buffer (9 M urea, 10 mM DTT, 50 mM TEAB pH 8.5). […]
Data processing: Cysteine engagement ratios (probe vs DMSO) were calculated for each peptide-spectra match by dividing each TMT reporter ion intensity by the average intensity for the channels corresponding to DMSO treatment. […]

[1] = test system: SIINFEKL presentation in E.G7-Ova cells; assay: FACS analysis with citric acid wash; assay type: cell-based, mouse; conditions: 4 h treatment, recovery up to 4 h
Experimental: E.G7-Ova cells (2 million/mL) were treated with compounds for 4 hours, washed with PBS, and then washed with 1 mL of 131 mM citric acid for 2 minutes, quenched with 1 mL 66 mM NaH2PO4, and then washed with PBS 3 times. Cells were then resuspended in warm RPMI and allowed to recover for the indicated period, after which cells were washed with PBS and transferred to 96 well plates for staining. Each well was washed with 200 μL PBS, and then stained for 20 minutes with 50 μL of staining solution: 1:1000 fixable near-IR LIVE/DEAD stain (Invitrogen) and 1:200 dilution of anti-SIINFEKL (BioLegend) or anti-Kb (BioLegend) antibody in FACS buffer (2% FBS in PBS supplemented with PenStrep and sterile filtered). Additional wells were used as unstained or singly-stained controls. After staining, cells were washed with PBS, then fixed in 200 μL 4% paraformaldehyde in PBS for 15 minutes. Cells were resuspended in 75 μL FACS buffer and analyzed on a Novocyte flow cytometer. The corresponding data in FIG. 2J are presented as the average percentage of median fluorescence intensity relative to DMSO treated control±SD from n=4 replicates. The corresponding data in FIG. 2K are presented as the average percentage of MFI relative to DMSO treated control±SD from n=3 replicates. Statistical analysis was performed using GraphPad PRISM Version 9.0.0.

SF3B1 (~150 kDa protein) = target: T2, SF3B1 (~150 kDa protein) (Homo sapiens, UniProt O75533+Q7RTV0); assay: Gel-based ABPP for SF3B1 cysteine engagement; assay type: binding; conditions: 22Rv1 cells, 24 h pre-treatment (1 μM WX-02-23/WX-02-43, 10 nM pladienolide B)
T2 construct: Cysteine engagement data from 22Rv1 cells treated; endogenous in cells; host or cells: 22Rv1
T2 sequence (O75533 whole entry): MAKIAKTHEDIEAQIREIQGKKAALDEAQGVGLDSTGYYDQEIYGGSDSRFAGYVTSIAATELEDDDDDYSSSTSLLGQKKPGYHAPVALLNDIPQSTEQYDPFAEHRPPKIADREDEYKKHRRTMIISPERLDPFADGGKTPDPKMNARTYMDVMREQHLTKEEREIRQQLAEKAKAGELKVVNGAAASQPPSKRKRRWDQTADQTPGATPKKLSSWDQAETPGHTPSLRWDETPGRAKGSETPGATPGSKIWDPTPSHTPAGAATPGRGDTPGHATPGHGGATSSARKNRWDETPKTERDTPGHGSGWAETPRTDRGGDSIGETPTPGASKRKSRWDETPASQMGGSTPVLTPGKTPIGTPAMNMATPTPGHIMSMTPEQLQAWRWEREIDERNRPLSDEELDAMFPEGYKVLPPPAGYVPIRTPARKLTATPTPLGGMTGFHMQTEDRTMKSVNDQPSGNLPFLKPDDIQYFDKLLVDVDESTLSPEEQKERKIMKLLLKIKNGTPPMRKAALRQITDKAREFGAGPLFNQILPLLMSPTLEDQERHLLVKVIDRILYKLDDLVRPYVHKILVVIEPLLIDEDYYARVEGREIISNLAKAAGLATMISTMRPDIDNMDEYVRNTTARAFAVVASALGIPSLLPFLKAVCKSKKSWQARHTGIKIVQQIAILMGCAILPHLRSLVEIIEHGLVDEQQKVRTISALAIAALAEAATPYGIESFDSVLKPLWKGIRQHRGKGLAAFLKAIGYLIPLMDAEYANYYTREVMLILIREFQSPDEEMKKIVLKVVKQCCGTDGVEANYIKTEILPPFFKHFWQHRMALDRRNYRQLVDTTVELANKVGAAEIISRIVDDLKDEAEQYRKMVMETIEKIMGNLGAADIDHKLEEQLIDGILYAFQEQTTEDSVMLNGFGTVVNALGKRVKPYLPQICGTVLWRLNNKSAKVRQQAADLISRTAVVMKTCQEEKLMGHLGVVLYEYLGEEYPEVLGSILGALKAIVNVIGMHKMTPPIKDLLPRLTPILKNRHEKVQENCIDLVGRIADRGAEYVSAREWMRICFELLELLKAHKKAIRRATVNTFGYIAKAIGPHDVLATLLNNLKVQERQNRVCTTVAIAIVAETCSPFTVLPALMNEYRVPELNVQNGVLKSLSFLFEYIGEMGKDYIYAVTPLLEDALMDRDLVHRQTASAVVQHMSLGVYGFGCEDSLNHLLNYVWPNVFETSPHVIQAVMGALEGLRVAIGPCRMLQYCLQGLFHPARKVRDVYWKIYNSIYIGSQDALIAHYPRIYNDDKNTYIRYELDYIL
T2 sequence (Q7RTV0 whole entry): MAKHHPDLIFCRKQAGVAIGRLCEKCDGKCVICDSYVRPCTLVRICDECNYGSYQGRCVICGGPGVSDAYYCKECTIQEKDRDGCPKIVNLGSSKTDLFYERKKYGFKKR
T2 sequence (Q15393 whole entry partner): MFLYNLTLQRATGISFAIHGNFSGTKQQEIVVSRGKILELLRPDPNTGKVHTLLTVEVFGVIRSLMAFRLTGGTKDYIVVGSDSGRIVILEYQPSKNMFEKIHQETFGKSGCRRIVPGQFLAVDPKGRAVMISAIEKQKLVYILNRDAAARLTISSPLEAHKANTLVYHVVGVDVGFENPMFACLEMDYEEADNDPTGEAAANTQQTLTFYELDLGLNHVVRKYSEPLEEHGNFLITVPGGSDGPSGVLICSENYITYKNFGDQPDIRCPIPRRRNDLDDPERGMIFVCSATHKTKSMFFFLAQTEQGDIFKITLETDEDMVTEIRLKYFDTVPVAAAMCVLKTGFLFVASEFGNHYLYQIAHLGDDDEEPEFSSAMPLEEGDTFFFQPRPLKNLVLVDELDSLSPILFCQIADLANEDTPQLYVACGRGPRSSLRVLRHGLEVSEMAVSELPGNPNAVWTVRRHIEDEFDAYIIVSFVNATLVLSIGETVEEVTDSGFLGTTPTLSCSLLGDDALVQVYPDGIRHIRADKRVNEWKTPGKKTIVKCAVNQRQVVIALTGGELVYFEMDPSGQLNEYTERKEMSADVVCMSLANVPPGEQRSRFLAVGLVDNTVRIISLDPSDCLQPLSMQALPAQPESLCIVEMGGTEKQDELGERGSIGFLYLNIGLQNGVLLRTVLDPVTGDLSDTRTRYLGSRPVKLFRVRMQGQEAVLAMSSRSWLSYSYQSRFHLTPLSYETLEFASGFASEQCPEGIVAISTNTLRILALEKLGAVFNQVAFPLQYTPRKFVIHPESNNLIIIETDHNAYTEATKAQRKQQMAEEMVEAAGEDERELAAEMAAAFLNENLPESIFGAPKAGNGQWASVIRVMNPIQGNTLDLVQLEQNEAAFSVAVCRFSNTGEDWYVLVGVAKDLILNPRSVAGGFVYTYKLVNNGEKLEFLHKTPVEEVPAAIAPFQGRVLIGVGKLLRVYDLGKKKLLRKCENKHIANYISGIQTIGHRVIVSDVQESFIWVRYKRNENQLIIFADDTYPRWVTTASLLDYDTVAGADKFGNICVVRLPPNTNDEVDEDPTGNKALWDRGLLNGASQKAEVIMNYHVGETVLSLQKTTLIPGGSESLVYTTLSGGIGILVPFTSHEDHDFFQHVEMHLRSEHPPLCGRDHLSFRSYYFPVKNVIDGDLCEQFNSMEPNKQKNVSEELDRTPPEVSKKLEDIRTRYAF
T2 sequence (Q9BWJ5 whole entry partner): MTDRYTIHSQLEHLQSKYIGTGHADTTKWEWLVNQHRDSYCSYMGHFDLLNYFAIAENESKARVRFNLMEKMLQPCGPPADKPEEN
Experimental: 22Rv1 cells were treated with indicated compounds for 24 h, chased with click probe for 1 h in situ, harvested and lysed in PBS with protease inhibitors (cOmplete), and then normalized to 2.0 mg/mL. Reagents for the CuAAC click reaction were pre-mixed prior to addition to the samples (3 μL of click reaction mix for 25 μL of lysate). After 1 hour of click labeling, 4×SDS running buffer was added to samples, which were then analyzed by SDS-PAGE.

[2] = test system: SF3B1 interacting proteins; assay: SF3B1 co-immunoprecipitation-MS; assay type: cell-based, human; conditions: HEK293T cells, 5 μM WX-02-23 or 10 nM pladienolide B, 3 h
Experimental: HEK293T cells were treated in situ with DMSO, 5 μM of WX-02-23/WX-02-43, or 10 nM pladienolide B for 3 hours. Cells were harvested, washed with ice-cold PBS, and lysed in ColP lysis buffer (0.5% NP-40, 100 mM EPPS, 150 mM NaCl, cOmplete protease inhibitor). Lysates centrifuged at 16,000 g for 3 minutes, normalized to 2.0 mg/mL and 500 μL of each lysate was aliquoted to a clean eppendorf tube.
Lysates were incubated with 5 μL of anti-IgG or anti-SF3B1 (CST) for 2 hours at 4 C, followed by 1 hour with 25 μL of protein-A agarose beads. Bead were washed twice with ColP lysis buffer, and then twice with 100 mM EPPS, followed by elution with 8 M urea in EPPS at 65 C for 10 min. […] Samples were then trypsinized at 37 C overnight (2 ug of trypsin per sample), then TMT labeled and desalted.

T1 sequence (Q06323 whole entry): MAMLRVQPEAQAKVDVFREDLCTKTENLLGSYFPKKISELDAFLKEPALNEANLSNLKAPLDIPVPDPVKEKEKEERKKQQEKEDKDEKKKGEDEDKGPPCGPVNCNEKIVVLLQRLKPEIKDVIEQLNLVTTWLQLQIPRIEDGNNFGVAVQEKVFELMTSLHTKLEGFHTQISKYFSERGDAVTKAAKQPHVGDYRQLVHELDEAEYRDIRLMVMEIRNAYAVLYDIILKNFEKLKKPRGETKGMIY

Compound: C=CC(=O)N1C[C@H](c2ccc(Br)cc2)[C@@H]1C(=O)Nc1cccc2cccnc12 [MY-1B, (2R,3S)-1-acryloyl-3-(4-bromophenyl)-N-(quinolin-8-yl)azetidine-2-carboxamide]
- IA-DTB reactivity of PSME1 C106 and PSME2 C91 (PSME1_C106 and PSME2_C91): striking, stereoselective increases in reactivity

Compound: CC#CC(=O)N1C[C@H](c2ccc(Br)cc2)[C@@H]1C(=O)Nc1cccc2cccnc12 [MY-45B, (2R,3S)-3-(4-bromophenyl)-1-(but-2-ynoyl)-N-(quinolin-8-yl)azetidine-2-carboxamide]
- SIINFEKL presentation after acid wash [1]: time- and concentration-dependent reduction in SIINFEKL presentation

Compound: C=CC(=O)N1[C@H](c2ccc3c(c2)OCO3)c2[nH]c3ccccc3c2C[C@H]1C(=O)N1CCOCC1 [WX-02-23, 1-((1R,3S)-1-(benzo[d][1,3]dioxol-S-yl)-3-(morpholine-4-carbonyl)-1,3,4,9-tetrahydro-2H-pyrido [3,4-b]indol-2-yl)prop-2-en-1-one]
- blockade of WX-01-10 labeling of the 150 kDa protein (SF3B1 (~150 kDa protein)): blocked
- SF3B1 interactions (DDX42 association) [2]: much greater extent
